Common to all, as to format: cell-based, human
Test [1] deals with cisplatin-resistant OC cell lines. Kind of test: Cisplatin dose response, resistant versus parental cell lines. The settings on record: all the resistant cell lines versus parental. An excerpt: Ovarian cancer cell lines used in the methods include SKOV3, PEO1, OVCAR5, and COV362, and their cisplatin-resistant counterparts include SKOV3-cisR, PEO4, OVCAR5-cisR, and COV362-cisR. SKOV3 (Cat #: HTB-77), Mia Paca2 (Cat #: CRL-1420), MDA-MB-231 (Cat #: CRM-HTB-26) and A549 (Cat #: CCL-185) cells were purchased from the American Type Culture Collection (ATCC, Manassas, VA). PEO1 (Cat #: 10032308) and PEO4 (Cat #: 10032309) were purchased from Sigma Aldrich. OVCAR5 cells were a generous gift from Dr. Marcus Peter, Northwestern University, and COV362 cells were from Dr. Kenneth Nephew, Indiana University. All cell lines were authenticated and tested to be mycoplasma negative. Mia Paca2 and A549 are in the list of known misidentified cell lines maintained by the International Cell Line Authentication Committee, while their authentication was performed by ATCC through STR profiling. […] Surviving cells were allowed to recover for 3 to 4 weeks before receiving the next treatment. […]
Cell viability was measured by MTS assay (Abcam, #ab197010) or by CellTiter-Glo™ assay (Promega, #G7570). […] Cell viability was measured by incubating with MTS reagent for 4 h and reading absorbance at 490 nm or incubating with CellTier-Glo™ reagent for 10 min and reading luminescence by a plate reader. […]

In test [2] the test system is OVCAR5 cells. Kind of test: Cell viability assay (dose-response). The settings on record: read-out: IC50 for cisplatin; OVCAR5 cells. Here is the method: (§1) Cell viability was measured by MTS assay (Abcam, #ab197010) or by CellTiter-Glo™ assay (Promega, #G7570). Cells were seeded at 96-well plates at densities of 2000˜5000 cells per well overnight. Treatment was added to the cells at indicated concentrations for 72 h. Cell viability was measured by incubating with MTS reagent for 4 h and reading absorbance at 490 nm or incubating with CellTier-Glo™ reagent for 10 min and reading luminescence by a plate reader. Six replicates were used for each group.
(§2) In addition, isogenic PEO1/PEO4 cell lines derived from the same patient were studied, at the time of a platinum sensitive (PEO1) and platinum resistant-recurrence (PEO4).
(§3) Having shown decreased glucose-derived anabolism and increased fatty acid uptake in cisplatin-resistant ovarian cancer cells, whether this metabolic feature can be used for differentiation of cisplatin-resistant from cisplatin-sensitive cancer cells was explored. […] In Table 2 below, quantitation of glucose-d7 (G-d7), PA-d31, and OA-d34 are shown as area fraction of C-D signal out of total cellular area, in mean values.

Test [3] deals with PEO4 cells. In words: Cell viability assay (dose-response). The settings on record: read-out: IC50 for cisplatin; PE04 cells. As for the experimental part: as §1, §2, §3
Test [4] concerns OVCAR5-cisR cells. Kind of test: Cell viability assay (dose-response). Conditions: read-out: IC50 for cisplatin; OVCAR5-CisR cells. Here is the method: as §1, §2, §3
Test [5] relates to PEO1 cells. In words: Cell viability assay (dose-response). The settings on record: read-out: IC50 for cisplatin; PE01 cells. Here is the method:
as §1, §2, §3

The next test has as its system COV362-cisR cells. Kind of test: Cell viability assay (dose-response). The settings on record: read-out: IC50 for cisplatin; COV362-cisR cells. As for the experimental part: as §1, §2, §3
Another test relates to SKOV3-cisR cells. Kind of test: Cell viability assay (dose-response). The settings on record: read-out: IC50 for cisplatin; SKOV3-CisR cells. Here is the method:
as §1, §2, §3

A further test deals with COV362 cells. Kind of test: Cell viability assay (dose-response). Conditions: read-out: IC50 for cisplatin. As for the experimental part:
as §1, §2, §3

In test [6] the test system is OVCAR5 cells. Kind of test: Reactive oxidative species measurement (DCFDA). Conditions: cisplatin 1.6 μM or 3.3 μM for 24 hours. As for the experimental part: (§4) Cellular reactive oxidative species (ROS) was measured using a fluorescent probe, 2′,7′-Dichlorofluorescin diacetate (DCFDA) (Sigma Aldrich). […] DCFDA was added to the medium at final concentration of 10 μM and incubated for 15 min. After washing with PBS for 3 times, cells were immediately imaged under confocal microscope (Zeiss LSM 700 microscope) with 488 nm as the exciting source. Laser power was controlled at low setting to avoid fluorescence extinction. Images at ˜10 field of view were acquired for each sample.

Test [7] deals with OVCAR5-cisR cells. Kind of test: Reactive oxidative species measurement (DCFDA). The settings on record: cisplatin 1.6 μM or 3.3 μM for 24 hours. Here is the method: as §4
Test [8] has as its system MIA PaCa-2 pancreatic cancer. Kind of test: Cell viability assay (dose-response). The settings on record: 6.6 μM cisplatin. As for the experimental part: as §1
(§5) Platinum is widely used across malignancies. […] These findings are broadly applicable to multiple types of cisplatin-resistant cancers. FIG. 8 illustrates the cellular metabolism switch from glycolysis to fatty acid oxidation with decreased glucose uptake, glycolysis and de novo lipogenesis while fatty acid uptake and oxidation are increased.

For the next test, the system named is MD-MBA231 breast cancer. In words: Cell viability assay (dose-response). The settings on record: 6.6 μM cisplatin. Here is the method:
as §1, §5

The test system of a further test is A549 lung cancer. In words: Cell viability assay (dose-response). The settings on record: 6.6 μM cisplatin. Here is the method:
as §1, §5

Test [9] relates to PEO4 cells. In words: OCR and ECAR by Seahorse analysis. Conditions: 13.2 μM cisplatin. Here is the method: (§6) Cell lines were seeded in a Seahorse® XF96 Cell Culture Microplate (Agilent) at density of 6×10^4 (OVCAR5 pair) or 4×10^4 (PEO pair) per well. After incubation at 37° C. overnight for cell attachment, OCR, and extracellular acidification rate (ECAR) were measured through Seahorse® XFe96 Analyzer (Agilent). Measurement time was 30 seconds following 3 minutes mixture and 30 seconds waiting time. First three cycles were used for basal respiration measurement. […] Basal respiration, ATP production and maximal respiration reduction were calculated following the manufacturer's instructions.

For test [10], the system named is PEO1 cells. In words: OCR and ECAR by Seahorse analysis. Conditions: 13.2 μM cisplatin. Here is the method:
as §6

Test [11] concerns OVCAR5 cells. In words: Glucose uptake assay (2-NBDG). Conditions: 3.3 μM cisplatin for 24 hours, 100 μM 2-NBDG for 2 hours. Here is the method:
Glucose uptake was measured using a fluorescent glucose analog 2-deoxy-2-[(7-nitro-2,1,3-benzoxadiazol-4-yl) amino]-D-glucose (2-NBDG) (Cayman Chemicals). Cells seeded in glass-bottom dishes were incubated with 100 μM 2-NBDG for 2 h. Fluorescent images were taken by confocal microscope (Zeiss® LSM 700 microscope) with 488 nm laser as excitation source. Images at ˜10 field of view were acquired for each sample.

A further test deals with A549 cells. Kind of test: Isotope labeling and SRS imaging after cisplatin treatment. The settings on record: 13.2 μM cisplatin for 48 hours, then 100 μM PA-d31 or OA-d34 for 6 h. As for the experimental part:
(§7) For labeling with glucose-d7, media was replaced with glucose-free DMEM medium (Thermo Fisher Scientific, #11966025)+10% FBS+P/S supplemented with 25 mM glucose-d7 after seeding the cells in 35 mm glass-bottom dishes overnight. For labeling with FA or analogs, including PA-d31, OA-d34, and ODYA, FA or analogs were added to the culture media at final concentration of 100 μM and cells were treated for 6 h. For quantitative SRS imaging, cells on glass-bottom dishes were fixed with 10% neutral buffered formalin for 30 min and washed with PBS for 3 times. Hyperspectral SRS imaging was performed to the cells at Raman spectral region from 2100 to 2300 cm^−1.
as §5

In a further test the test system is MIA PaCa-2 cells. The description is as above. The settings on record: 6.6 μM cisplatin for 24 hours, then 100 μM PA-d31 or OA-d34 for 6 h. Here is the method: as §7, §5
Another test concerns MD-MBA231 cells. The description is as above. The settings on record: 6.6 μM cisplatin for 24 hours, then 100 μM PA-d31 or OA-d34 for 6 h. Here is the method: as §7, §5

This note sets out measurements from patent US12055536B2, “Device for detection of cellular stress” (Trustees of Boston University, priority 2021, dated 2024).

Turning to `N.N.[Cl][Pt][Cl]` [cisplatin], in test [1], the “increase of IC50 compared to parental counterpart cell lines” value is listed as 2-3 fold. Besides, the IC50 (in general, the midpoint of a concentration-inhibition curve) is 8.26 µM with OVCAR5 cells [2]; 13.6 µM in the test on PEO4 cells [3]; 17.4 µM in the test on OVCAR5-cisR cells [4]; 4.72 µM with PEO1 cells [5]; 15.2 µM in the test with COV362-cisR cells; 17.3 µM with SKOV3-cisR cells. Further, in the test on COV362 cells, the 50% inhibitory concentration (IC50) is 7.19 µM. Besides, the “ROS production (DCF fluorescent signal intensity)” value with OVCAR5 cells [6] and with OVCAR5-cisR cells [7] was “significant increase of ROS production” throughout. Besides, the cell death result (in test [8]; in the test on MD-MBA231 breast cancer; in the test with A549 lung cancer) was “no significant cell death” throughout. In addition, the ECAR rate entry with PEO4 cells [9] and with PEO1 cells [10] was “promptly lowered” in each case. Also, the OCR result is listed as “slight increase of OCR” in the test on PEO4 cells [9] (before and 30 minutes after); “slight increase of OCR” in the test with PEO1 cells [10] (before and 30 minutes after). The “glucose uptake, measured by 2-NBDG” value with OVCAR5 cells [11] is “reduced”. Further, the “PA-d31 and OA-d34 uptake (C-D signal)” value with A549 cells and in the test with MD-MBA231 cells was “significant increase” throughout. Moreover, the “uptake of PA-d31 and OA-d34 (C-D signal)” value in the test with MIA PaCa-2 cells is recorded as “significantly increased”.
